13 compounds from patent US9611278B2 (Merck Sharp & Dohme Corp., priority 2013, dated 2017) can be followed below.

This assay addresses T1, sGC α1/β1 heterodimer stably expressed in CHO-K1 cells (CHO-K1/sGC) (Homo sapiens, UniProt Q02108+Q02153).
T1 construct: expressed in transfected cells
T1 sequence (Q02108 1-690): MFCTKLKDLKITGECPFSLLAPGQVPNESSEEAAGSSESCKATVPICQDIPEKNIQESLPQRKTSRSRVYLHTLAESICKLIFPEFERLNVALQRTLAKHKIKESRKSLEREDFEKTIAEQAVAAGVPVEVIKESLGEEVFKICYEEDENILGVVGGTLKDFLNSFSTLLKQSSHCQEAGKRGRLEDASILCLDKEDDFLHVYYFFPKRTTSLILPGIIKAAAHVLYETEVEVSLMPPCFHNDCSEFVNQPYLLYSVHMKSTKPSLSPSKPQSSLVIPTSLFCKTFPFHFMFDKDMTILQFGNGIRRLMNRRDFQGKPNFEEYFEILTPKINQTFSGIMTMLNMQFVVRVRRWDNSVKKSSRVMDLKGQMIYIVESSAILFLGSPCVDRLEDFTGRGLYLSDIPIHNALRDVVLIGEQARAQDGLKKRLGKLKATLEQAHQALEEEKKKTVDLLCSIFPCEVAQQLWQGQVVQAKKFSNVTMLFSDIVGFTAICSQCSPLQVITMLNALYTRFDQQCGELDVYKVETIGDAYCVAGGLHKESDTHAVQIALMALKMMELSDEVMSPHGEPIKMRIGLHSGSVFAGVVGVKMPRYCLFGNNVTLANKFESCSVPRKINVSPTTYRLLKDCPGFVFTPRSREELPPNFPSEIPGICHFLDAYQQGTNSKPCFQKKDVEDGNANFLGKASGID
T1 sequence (Q02153 1-619): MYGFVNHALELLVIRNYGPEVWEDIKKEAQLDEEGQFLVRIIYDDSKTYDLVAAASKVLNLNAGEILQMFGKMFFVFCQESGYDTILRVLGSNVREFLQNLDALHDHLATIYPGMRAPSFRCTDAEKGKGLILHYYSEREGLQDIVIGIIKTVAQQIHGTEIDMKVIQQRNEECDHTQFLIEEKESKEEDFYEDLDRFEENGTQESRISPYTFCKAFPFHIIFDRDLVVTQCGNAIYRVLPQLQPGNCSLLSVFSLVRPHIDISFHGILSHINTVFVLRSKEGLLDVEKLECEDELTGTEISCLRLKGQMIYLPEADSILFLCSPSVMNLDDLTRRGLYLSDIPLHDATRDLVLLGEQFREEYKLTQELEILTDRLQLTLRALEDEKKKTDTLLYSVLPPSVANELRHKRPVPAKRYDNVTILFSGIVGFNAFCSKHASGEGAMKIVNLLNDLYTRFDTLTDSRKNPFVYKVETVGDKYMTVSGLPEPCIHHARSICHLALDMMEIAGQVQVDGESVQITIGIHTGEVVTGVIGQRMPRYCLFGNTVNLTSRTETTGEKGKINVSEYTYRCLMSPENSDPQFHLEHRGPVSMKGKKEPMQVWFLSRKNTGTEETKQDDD
In words: Cell-based sGC Functional Assay (CASA Assay). To be noted: for Emax: CHO-K1, activation as percentage of maximum cGMP production of Compound A (set to 100%), read-out: % Act.; for EC50: inflection point of cGMP generation in CHO-K1/sGC cells, 4P fit, 1 hr at 37° C., read-out: IP. From the text:
sGC is a heme-containing enzyme that converts GTP to secondary messenger cGMP. Increases in cGMP levels affect several physiological processes including vasorelaxation through multiple downstream pathways. […] Heme-dependent activators (HDAs) preferentially activate sGC containing a ferrous heme group. To determine the effect of sGC activators on enzyme activity, the CASA assay was developed to monitor the generation of cGMP in a cell line that stably expresses the heterodimeric sGC protein.
A CHO-K1 cell line stably expressing the sGC α1/β1 heterodimer was generated using a standard transfection protocol. CHO-K1 cells were transfected with plasmids pIREShyghsGCα1 and pIRESneo-hsGCβ1 simultaneously using FUGENE reagent. Clones that stably express both subunits were selected with hygromycin and neomycin for ˜2 weeks. Clone #7 was chosen for the assay and was designated CHO-K1/sGC. CHO-K1/sGC cells were maintained in F-K12 medium containing 10% heat-inactivated Fetal Bovine Serum (FBS), 100 μg/mL penicillin/streptomycin, 0.5 mg/mL hygromycin and 0.25 mg/mL G418. The cells were then cryopreserved in LN2. On the day of the assay, cells thawed and resuspended in EBSS Assay Buffer (EAB, Sigma, E3024) supplemented with 5 mM MgCl2, 10 mM HEPES (4-(2-hydroxyethyl)piperazine-1-ethanesulfonic acid) and 0.05% BSA (bovine serum albumin) and cell density was then adjusted to 4×10^5/mL with EAB. IBMX (3-isobutyl-1-methylxanthin, 0.5 mM) was added to inhibit degradation of cGMP. Compounds were diluted from DMSO stock solutions and added to the assay at a final DMSO concentration of 2.5%. Cells were incubated with compounds in the presence and absence of 1 μM of Diethylenetriamine/nitric oxide adduct (DETA-NO; Sigma, 17018) for 1 hr at 37° C. At the end of the incubation period, the reaction was terminated and the cells were lysed with the detection reagents from Cisbio Kits. The level of intracellular cGMP was determined using an HTRF-based assay kit (CisBio, 62GM2PEC), which detects the displacement of a fluorescence labeled cGMP from its specific antibody. The cGMP produced by test compounds was directly compared to the maximum cGMP production (this value was set to equal 100% activation.) of the published sGC-HDA Compound A:
(Example 1 in WO 2010/065275, published Jun. 10, 2010). The test compounds' activity were then expressed as a percentage of Compound A, the standard in every experiment. This percent activation was calculated either in the presence or absence of DETA-NO which was then plotted. IP and maximum fold induction was derived using ADA analysis software for 4P fit.

Turning to `COc1ccc(C2(C)C(=O)Nc3nc(-c4nc(CC5CC(F)(F)C5)nc5c4cnn5C)nc(N)c32)nc1` (stereo not shown) [Example 33, 4-Amino-2-(6-((3,3-difluorocyclobutyl)methyl)-1-methyl-1H-pyrazolo[3,4-d]pyrimidin-4-yl)-5-(5-methoxypyridin-2-yl)-5-methyl-5,7-dihydro-6H-pyrrolo[2,3-d]pyrimidin-6-one], the Emax is 104% and the EC50 was 32 nM. Consider `[2H]C([2H])([2H])n1ncc2c(-c3nc(N)c4c(n3)NC(=O)C4(C)c3ccc(OC)cn3)nc(CCC(F)(F)C(F)(F)F)nc21` (stereo not shown) [Example 12, 4-Amino-5-(5-methoxypyridin-2-yl)-5-methyl-2-(1-(methyl-d3)-6-(3,3,4,4,4-pentafluorobutyl)-1H-pyrazolo[3,4-d]pyrimidin-4-yl)-5,7-dihydro-6H-pyrrolo[2,3-d]pyrimidin-6-one], for which the Emax turned out to be 104%. As to `[2H]C([2H])([2H])n1ncc2c(-c3nc(N)c4c(n3)NC(=O)C4(C)c3nc(C4CC4)no3)nc(CCC(F)(F)C(F)(F)F)nc21` (stereo not shown) [Example 8, 4-Amino-5-(3-cyclopropyl-1,2,4-oxadiazol-5-yl)-5-methyl-2-(1-(methyl-d3)-6-(3,3,4,4,4-pentafluorobutyl)-1H-pyrazolo[3,4-d]pyrimidin-4-yl)-5,7-dihydro-6H-pyrrolo[2,3-d]pyrimidin-6-one], the Emax was found to be 126% and the EC50 amounted to 49 nM.

As for `Cn1ncc2c(-c3nc(N)c4c(n3)NC(=O)C4(c3nnc(C4CC4)o3)C3CC3)nc(CC3CC(F)(F)C3)nc21` (stereo not shown) [Example 51, 4-Amino-5-cyclopropyl-5-(5-cyclopropyl-1,3,4-oxadiazol-2-yl)-2-(6-((3,3-difluorocyclobutyl)methyl)-1-methyl-1H-pyrazolo[3,4-d]pyrimidin-4-yl)-5,7-dihydro-6H-pyrrolo[2,3-d]pyrimidin-6-one], the Emax is 154% and the EC50 is 119 nM. On to `CCCCc1nc(-c2nc(N)c3c(n2)NC(=O)C3(C)c2ccc(OC)cn2)c2cnn(C)c2n1` (single isomer, unassigned) [Example 36, 4-Amino-2-(6-butyl-1-methyl-1H-pyrazolo[3,4-d]pyrimidin-4-yl)-5-(5-methoxypyridin-2-yl)-5-methyl-5,7-dihydro-6H-pyrrolo[2,3-d]pyrimidin-6-one], for which the Emax is 116% and the EC50 came out at 43 nM. Taken in the same sequence, the figures for `CCCCc1nc(-c2nc(N)c3c(n2)NC(=O)C3(C)c2ccc(F)cn2)c2cnn(C)c2n1` (stereo not shown) [Example 34, 4-Amino-2-(6-butyl-1-methyl-1H-pyrazolo[3,4-d]pyrimidin-4-yl)-5-(5-fluoropyridin-2-yl)-5-methyl-5,7-dihydro-6H-pyrrolo[2,3-d]pyrimidin-6-one] were 109% and 44 nM. In the same order, the values of `[2H]C([2H])([2H])n1ncc2c(-c3nc(N)c4c(n3)NC(=O)C4(c3cnn(C)c3)C3CC3)nc(CCC(F)(F)C(F)(F)F)nc21` (stereo not shown) [Example 24, 4-Amino-5-cyclopropyl-5-(1-methyl-1H-pyrazol-4-yl)-2-(1-(methyl-d3)-6-(3,3,4,4,4-pentafluorobutyl)-1H-pyrazolo[3,4-d]pyrimidin-4-yl)-5,7-dihydro-6H-pyrrolo[2,3-d]pyrimidin-6-one] are 84% and 885 nM. For `CCn1ncc(C2(C)C(=O)Nc3nc(-c4nc(CCC(F)(F)C(F)(F)F)nc5c4cnn5C)nc(N)c32)n1` (stereo not shown) [Example 79, 4-Amino-5-(2-ethyl-2H-1,2,3-triazol-4-yl)-5-methyl-2-(1-methyl-6-(3,3,4,4,4-pentafluorobutyl)-1H-pyrazolo[3,4-d]pyrimidin-4-yl)-5,7-dihydro-6H-pyrrolo[2,3-d]pyrimidin-6-one], the Emax was 169% and the EC50 amounted to 491 nM. In the same order, the values of `[2H]C([2H])([2H])n1ncc2c(-c3nc(N)c4c(n3)NC(=O)C4(CC)c3nnc(C4CC4)o3)nc(CCC(F)(F)C(F)(F)F)nc21` (stereo not shown) [Example 42, 4-Amino-5-(5-cyclopropyl-1,3,4-oxadiazol-2-yl)-5-ethyl-2-(1-(methyl-d3)-6-(3,3,4,4,4-pentafluorobutyl)-1H-pyrazolo[3,4-d]pyrimidin-4-yl)-5,7-dihydro-6H-pyrrolo[2,3-d]pyrimidin-6-one] are 120% and 887 nM. In the same order, the values of `[2H]C([2H])([2H])n1ncc2c(-c3nc(N)c4c(n3)NC(=O)C4(C)c3ccc4cccnc4c3)nc(CCC(F)(F)C(F)(F)F)nc21` (stereo not shown) [Example 13, 4-Amino-5-methyl-2-(1-(methyl-d3)-6-(3,3,4,4,4-pentafluorobutyl)-1H-pyrazolo[3,4-d]pyrimidin-4-yl)-5-(quinolin-7-yl)-5,7-dihydro-6H-pyrrolo[2,3-d]pyrimidin-6-one] are 89% and 29 nM. Take `CCn1ncc2c(-c3nc(N)c4c(n3)NC(=O)C4(c3nnc(C4CC4)o3)C3CC3)nc(CCC(F)(F)C(F)(F)F)nc21` (stereo not shown) [Example 45, 4-Amino-5-cyclopropyl-5-(5-cyclopropyl-1,3,4-oxadiazol-2-yl)-2-(1-ethyl-6-(3,3,4,4,4-pentafluorobutyl)-1H-pyrazolo[3,4-d]pyrimidin-4-yl)-5,7-dihydro-6H-pyrrolo[2,3-d]pyrimidin-6-one]: the Emax is 101% and the EC50 is 738 nM. Taken in the same sequence, the figures for `Cn1ncc2c(-c3nc(N)c4c(n3)NC(=O)C4(C)c3ccccn3)nc(CCCC(F)(F)F)nc21` (stereo not shown) [Example 21, 4-Amino-5-methyl-2-(1-methyl-6-(4,4,4-trifluorobutyl)-1H-pyrazolo[3,4-d]pyrimidin-4-yl)-5-(pyridin-2-yl)-5,7-dihydro-6H-pyrrolo[2,3-d]pyrimidin-6-one] were 111% and 138 nM. On to `Cn1ncc2c(-c3nc(N)c4c(n3)NC(=O)C4(C)c3ccc(Cl)cn3)nc(CC3CC(F)(F)C3)nc21` (stereo not shown) [Example 37, 4-Amino-5-(5-chloropyridin-2-yl)-2-(6-((3,3-difluorocyclobutyl)methyl)-1-methyl-1H-pyrazolo[3,4-d]pyrimidin-4-yl)-5-methyl-5,7-dihydro-6H-pyrrolo[2,3-d]pyrimidin-6-one], for which the Emax came to 192% and the EC50 stood at 41 nM.
